Test results as given in patent US8889651B2, “Trehalose derivatives, preparation method and uses thereof” (Joyochem Co., Ltd., priority 2010, dated 2014).
Read-outs that look alike come from different tables or passages of the source.

Assays:
normal cells = settings: background statement; cited from earlier work
[1] = system: colon cancer 26-L5 cell invasion; settings: background statement; read-out: anti-colon cancer 26-L5 cell invasion activity IC50; cited from earlier work
[2] = system: colon cancer 26-L5 cell invasion; assay: recombinant basement membrane invasion experiment (Transwell/Matrigel); format: cell-based; settings: for IC50 / IC50 (μg/mL): inhibition of colon cancer 26-L5 cell invasion
Description: Invasion and metastasis are basic characteristics of malignant tumors. During the tumor metastasis process, the tumor cell invasion into a basement membrane is an important link. A conventional recombinant basement membrane invasion experiment is adopted, a natural product Brartemicin is taken as positive control, and the inhibition action of trehalose derivatives against colon cancer 26-L5 cell invasion activity is determined.
Polycarbonate membrane 8 μm (Nucleopore, Pleasanton, Calif., USA); Transwell cell culture chamber (Costar 3422, Cambridge, Mass., USA); fibronectin (FN; Collaborative Research Inc., Bedford, Mass., USA); Matrigel (Collaborative Research Inc., Bedford, Mass., USA); RPMI1640 culture medium containing 1% of fetal calf serum (FCS) (Collaborative Research Inc., Bedford, Mass., USA); and hematoxylin-eosin (HE) staining kit (Collaborative Research Inc., Bedford, Mass, USA).
20 μg of fibronectin is smeared on the lower layer of a Transwell cell culture chamber, and 5 μg of Matrigel is smeared on the upper layer. Colon cancer 26-L5 cells in an exponential growth phase are suspended in an RPMI1640 culture medium containing 1% of fetal calf serum (FCS), which contains different concentrations of the trehalose derivatives or different concentrations of Brartemicin. […] The filter ester membranes contain the colored colon cancer 26-L5 cells after invasion. The ester membranes are placed on glass slides and are subjected to permeabilization by xylene, neutral resin is used for sealing, and the invasion cells are counted under a 400× microscope. The number of the penetrating cells of each membrane is counted from five different visual fields, namely upper, lower, left, right and middle visual fields, the average value is calculated, and three filter membranes are arranged in parallel in each group.
The natural product Brartemicin is taken as the positive control, the inhibition action of the trehalose derivatives against the colon cancer 26-L5 cell invasion activity is determined, and the activity experiment results are as shown in the following Table 1.

Row | SMILES | anti-colon cancer 26-L5 cell invasion activity (in words) [2] | IC50 (μg/mL) ([2]; incubation 6-8 hours) | also measured
1 | Cc1cc(O)cc(O)c1C(=O)OC[C@H]1O[C@H](O[C@H]2O[C@H](COC(=O)c3c(C)cc(O)cc3O)[C@@H](O)[C@H](O)[C@H]2O)[C@H](O)[C@@H](O)[C@@H]1O [Brartemicin] |  |  | toxicity against normal cells (normal cells): no toxicity against normal cells; IC50 [1]: 390 nM; IC50 ([2]; incubation 6-8 hours, read-out: IC50): 0.25 µg/mL
2 | COc1ccccc1C(=O)OCC1OC(OC2OC(COC(=O)c3ccccc3OC)C(O)C(O)C2O)C(O)C(O)C1O [Compound 3a, 6,6′-bis(2-methoxybenzoyl)-α,α-D-trehalose] | strong anti-colon cancer 26-L5 cell invasion activity |  | 
3 | Cc1ccccc1C(=O)OC[C@H]1O[C@H](O[C@H]2O[C@H](COC(=O)c3ccccc3C)[C@@H](O)[C@H](O)[C@H]2O)[C@H](O)[C@@H](O)[C@@H]1O [Compound 3b, 6,6″-bis(2-methylbenzoyl)-α,α-D-trehalose] |  | NA (NA: no activity when IC50 is 10 μg/mL) | 
4 | COc1ccc(C(=O)OC[C@H]2O[C@H](O[C@H]3O[C@H](COC(=O)c4ccc(OC)cc4)[C@@H](O)[C@H](O)[C@H]3O)[C@H](O)[C@@H](O)[C@@H]2O)cc1 [Compound 3c, 6,6′-bis(4-methoxybenzoyl)-α,α-D-trehalose] |  | NA (NA: no activity when IC50 is 10 μg/mL) | 
5 | O=C(OCC1OC(OC2OC(COC(=O)c3ccc(O)cc3)C(O)C(O)C2O)C(O)C(O)C1O)c1ccc(O)cc1 (stereo not drawn) [Compound 3d] | strong anti-colon cancer 26-L5 cell invasion activity |  | 
6 | COc1cccc(C(=O)OC[C@H]2O[C@H](O[C@H]3O[C@H](COC(=O)c4cccc(OC)c4OC)[C@@H](O)[C@H](O)[C@H]3O)[C@H](O)[C@@H](O)[C@@H]2O)c1OC [Compound 3e] | strong anti-colon cancer 26-L5 cell invasion activity |  | activity compared with the natural product Brartemicin [2]: stronger activity than the natural product Brartemicin; IC50 ([2]; incubation 6-8 hours): 0.10 µg/mL; IC50 ([2]; same value given in μM, read-out: IC50): 0.15 µM
7 | O=C(OCC1OC(OC2OC(COC(=O)c3c(F)cccc3F)C(O)C(O)C2O)C(O)C(O)C1O)c1c(F)cccc1F (stereo not drawn) [Compound 3f] | strong anti-colon cancer 26-L5 cell invasion activity |  | 
8 | Cc1cccc(N)c1C(=O)OC[C@H]1O[C@H](O[C@H]2O[C@H](COC(=O)c3c(C)cccc3N)[C@@H](O)[C@H](O)[C@H]2O)[C@H](O)[C@@H](O)[C@@H]1O [Compound 3g] | strong anti-colon cancer 26-L5 cell invasion activity |  | 
9 | COc1cc(C(=O)OCC2OC(OC3OC(COC(=O)c4ccc(F)c(OC)c4)C(O)C(O)C3O)C(O)C(O)C2O)ccc1F (stereo not drawn) [Compound 3h] |  | NA (NA: no activity when IC50 is 10 μg/mL) | 
10 | COc1cc(C(=O)OC[C@H]2O[C@H](O[C@H]3O[C@H](COC(=O)c4cc(OC)c(OC)c(OC)c4)[C@@H](O)[C@H](O)[C@H]3O)[C@H](O)[C@@H](O)[C@@H]2O)cc(OC)c1OC [Compound 3i] |  | NA (NA: no activity when IC50 is 10 μg/mL) | 
